Measurements from patent US9301954B2, “Pharmaceutical composition for the prevention or treatment of osteoarthritis containing rebamipide as an active ingredient” (HANLIM PHARMACEUTICAL CO., LTD, priority 2010, dated 2016).
“Also recorded” adds a separate entry of the source.

Test system: MIA-induced osteoarthritis rats
Assay: Therapeutic efficacy of oral rebamipide in monosodium iodoacetate (MIA)-induced osteoarthritis in rats
Format: in vivo, Wistar rats
Description: About 5 week old male Wistar rats were used. Monosodium iodoacetate (MIA) was dissolved in a physiological saline; and then administered to the rats in the dose of 4 mg/50 μl via the right knee thereof, so as to induce osteoarthritis. The rats were divided into 3 groups, each having 5 rats. The first group (non-arthritis) was a non-treated group, i.e., a normal control group. The second group (MIA) was an osteoarthritis-induced group through the MIA administration. The rats of the third group (MIA+Rebamipide) were administered with the MIA to induce osteoarthritis; and then orally administered with rebamipide every day for 7 days. At the 7th day after the MIA induction, the femurs and the tibias were isolated from the rats of each group and then observed under a dissecting microscope. After H&E staining, the knee joint sites were observed through a low-magnification lens. In the results, the nucleus is shown in blue-violet color and the cytoplasm is shown in pink color. […] The knee joints were stained with Safranin O, which can show losses of the cartilage proteoglycans. The tartrate-resistant acid phosphatase (TRAP) staining for osteoclasts, was performed at 37° C. for 30 minutes, using a leukocyte acid phosphatase kit (Sigma 387-A, USA). The TRAP-positive cells were shown in red-violet color. The multinucleated cells (having above 3 nuclei) were considered as TRAP-positive cells (osteoclasts), which were counted under an optical microscope.

With O=C(NC(Cc1cc(=O)[nH]c2ccccc12)C(=O)O)c1ccc(Cl)cc1 (stereo not drawn) [rebamipide] the “Inflammation by H&E staining” value (MIA+Rebamipide group in comparison with the MIA group, oral, 7 days) was “favorably changed”, the “Cartilage damage by histological analyses (TRAP, safranin O, H&E staining)” value (MIA+Rebamipide group vs MIA group, oral, 7 days) was “remained intact without destruction” and the “Safranin O staining of femoral cartilage site (proteoglycan loss, surface)” value (MIA+Rebamipide group, oral, 7 days, similar to the non-arthritis group) was “smooth and shown in strong orange-red color”. For the same compound, the “Cartilage damage of isolated femurs and tibias observed under a dissecting microscope” value (male Wistar rats, MIA 4 mg/50 μl via right knee, rebamipide orally every day for 7 days, 7th day after MIA induction) was “significantly inhibited; also recorded: little damages in the cartilage sites”, the “Number of osteoclasts in the tibial subchondral bone via TRAP staining” value (rebamipide group in comparison with the MIA group, oral, 7 days) was “significantly reduced” and the “Histology grade evaluation (standards of Table 1, FIG. 3): cartilage surface and safranin O loss” value (rebamipide-treated group, oral, 7 days) was “only a little loss of safranin O in the cartilage site”.
